For 45 molecules, Ratio and IC50 results are on record in ChEMBL document CHEMBL3580553, “Potent and Nontoxic Chemosensitizer of P-Glycoprotein-Mediated Multidrug Resistance in Cancer: Synthesis and Evaluation of Methylated Epigallocatechin, Gallocatechin, and Dihydromyricetin Derivatives” (J Med Chem, 2015).

Each structure is given as a SMILES string. Bounds are passed on as bounds.

The IC50 is the midpoint of a concentration-inhibition curve.

Series [1] concerns the target ATP-dependent translocase ABCB1 (Homo sapiens, UniProt P08183). As to the kind of experiment: Modulation of P-gp (unknown origin) transfected in human MDA435/LCC6MDR cells assessed as reversible of paclitaxel resistance measured as IC50 for paclitaxel at 1 uM after 5 days by CellTiter 96 Aqueous assay relative to PTX alone treated cell. Format: cell-based. The note with it: 120 h.

Series [2] is described as follows: Modulation of P-gp (unknown origin) transfected in human MDA435/LCC6MDR cells assessed as reversible of paclitaxel resistance measured as IC50 for paclitaxel at 1 uM after 5 days by CellTiter 96 Aqueous assay.
Series [3] in a line: Cytotoxicity against human LCC-6 cells after 3 days by MTS assay. Format: functional, cell-based. The note with it: LCC-6, 72 h.
Series [4] deals with L929. As to the kind of experiment: Cytotoxicity against mouse L929 cells after 3 days by MTS assay. Format: cell-based. The note with it: L929, 72 h. On the technique in general: Formazan colour is commonly taken as a measure of viable cells.
Series [5] in a line: Cytotoxicity against human MDA435/LCC6MDR cells after 3 days by MTS assay. Format: functional, cell-based. The note with it: 72 h.

ATP-dependent translocase ABCB1, sequence (P08183 whole entry): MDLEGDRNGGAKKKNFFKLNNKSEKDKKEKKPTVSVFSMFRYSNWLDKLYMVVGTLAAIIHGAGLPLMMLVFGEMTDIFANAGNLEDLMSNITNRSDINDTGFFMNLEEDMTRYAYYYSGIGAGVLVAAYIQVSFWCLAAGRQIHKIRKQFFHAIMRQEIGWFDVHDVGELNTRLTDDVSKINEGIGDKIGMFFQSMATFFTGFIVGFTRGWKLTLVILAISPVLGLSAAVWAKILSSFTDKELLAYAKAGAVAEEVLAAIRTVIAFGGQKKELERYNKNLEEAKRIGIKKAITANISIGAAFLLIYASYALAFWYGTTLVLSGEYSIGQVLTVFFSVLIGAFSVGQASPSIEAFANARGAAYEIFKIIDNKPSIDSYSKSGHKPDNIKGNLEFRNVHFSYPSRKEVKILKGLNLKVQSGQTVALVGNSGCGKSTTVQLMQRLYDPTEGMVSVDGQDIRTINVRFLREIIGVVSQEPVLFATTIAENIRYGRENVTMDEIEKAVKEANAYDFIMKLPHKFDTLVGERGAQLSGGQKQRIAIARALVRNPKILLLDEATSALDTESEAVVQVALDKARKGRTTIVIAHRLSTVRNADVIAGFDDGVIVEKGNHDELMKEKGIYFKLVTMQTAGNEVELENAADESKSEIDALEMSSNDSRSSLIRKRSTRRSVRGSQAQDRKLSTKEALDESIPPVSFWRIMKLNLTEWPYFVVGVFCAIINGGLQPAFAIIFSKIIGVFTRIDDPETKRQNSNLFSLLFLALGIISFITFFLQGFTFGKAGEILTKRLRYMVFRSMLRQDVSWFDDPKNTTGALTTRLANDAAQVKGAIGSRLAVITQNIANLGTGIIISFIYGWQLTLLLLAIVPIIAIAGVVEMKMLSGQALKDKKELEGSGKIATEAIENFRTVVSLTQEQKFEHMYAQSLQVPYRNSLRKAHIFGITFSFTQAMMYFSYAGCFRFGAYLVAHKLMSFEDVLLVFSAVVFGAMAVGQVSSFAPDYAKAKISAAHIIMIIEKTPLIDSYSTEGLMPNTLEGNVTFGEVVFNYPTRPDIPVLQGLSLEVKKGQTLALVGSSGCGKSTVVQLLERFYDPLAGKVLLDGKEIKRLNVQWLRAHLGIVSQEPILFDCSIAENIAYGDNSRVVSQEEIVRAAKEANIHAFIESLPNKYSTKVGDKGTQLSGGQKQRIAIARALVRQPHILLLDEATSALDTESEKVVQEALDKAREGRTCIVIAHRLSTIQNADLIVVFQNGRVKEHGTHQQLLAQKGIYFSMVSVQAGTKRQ

As for `COc1cc(OC)c2c(c1)O[C@H](c1cc(OC)c(OC)c(OC)c1)[C@H](OC(=O)c1ccc(F)c(NC(=O)c3ccc(F)c(NC(=O)c4ccc(OC)c(OC)c4)c3)c1)C2`, the Ratio in series [1] was determined as 10.6.

Take `COc1cc(OC)c2c(c1)O[C@H](c1cc(OC)c(OC)c(OC)c1)[C@@H](OC(=O)c1ccc(OC)c(OC)c1)C2=O`: the Ratio in series [1] is on record as 4.

Regarding `COc1cc(OC)c2c(c1)O[C@H](c1cc(OC)c(OC)c(OC)c1)[C@H](OC(=O)c1ccc(F)c(NC(=O)c3ccc(F)c(NC(=O)c4cc(OC)c(OC)c(OC)c4)c3)c1)C2`, the Ratio in series [1] was 10.8.

Turning to `COc1cc(OC)c2c(c1)O[C@H](c1cc(OC)c(OC)c(OC)c1)[C@@H](OC(=O)/C=C/c1ccc(OC)c(OC)c1)C2=O`, in series [1], the Ratio is reported as 5.5. For the same molecule, the IC50 in series [2] came to 0.0262 µM.

For the molecule `COc1ccc(C(=O)Nc2cc(C(=O)Nc3cc(C(=O)O[C@@H]4Cc5c(OC)cc(OC)cc5O[C@@H]4c4cc(OC)c(OC)c(OC)c4)ccc3F)ccc2F)cc1`, the Ratio in series [1] is 9.2. The 50% inhibitory concentration (IC50) in series [2] stood at 0.0157 µM.

`COc1cc(OC)c2c(c1)O[C@H](c1cc(OC)c(OC)c(OC)c1)[C@@H](OC(=O)c1cc(OC)c(OC)c(OC)c1)C2`: in series [1], the Ratio is reported as 3.

`COc1cc(OC)c2c(c1)O[C@H](c1cc(OC)c(OC)c(OC)c1)[C@@H](OC(=O)c1ccc(F)c(NC(=O)/C=C/c3cc(OC)c(OC)c(OC)c3)c1)C2=O`: in series [1], the Ratio amounted to 5.2.

With `COc1cc(OC)c2c(c1)O[C@H](c1cc(OC)c(OC)c(OC)c1)[C@@H](OC(=O)c1cc(OC)c(OC)c(OC)c1)C2=O`, the Ratio in series [1] is recorded as 3.3.

`COc1ccc(C(=O)O[C@H]2Cc3c(OC)cc(OC)cc3O[C@@H]2c2cc(OC)c(OC)c(OC)c2)cc1`: the Ratio in series [1] amounted to 2.2.

With `COc1ccc(C(=O)O[C@H]2C(=O)c3c(OC)cc(OC)cc3O[C@@H]2c2cc(OC)c(OC)c(OC)c2)cc1`, in series [1], the Ratio came to 3.

`COc1cc(OC)c2c(c1)O[C@H](c1cc(OC)c(OC)c(OC)c1)[C@@H](OC(=O)/C=C/c1cc(OC)c(OC)c(OC)c1)C2=O`: the Ratio in series [1] was determined as 9.1. Further, the concentration for half-maximal inhibition (IC50) in series [2] worked out at 0.0159 µM.

Take `COc1cc(OC)c2c(c1)O[C@H](c1cc(OC)c(OC)c(OC)c1)[C@H](OC(=O)c1ccc(F)c(NC(=O)/C=C/c3ccc(OC)c(OC)c3)c1)C2`: in series [1], the Ratio came to 17.9. For the same molecule, the IC50 in series [3] was more than 100 µM; in series [2], 0.0081 µM; in series [4], more than 100 µM; in series [5], more than 100 µM.

Take `COc1cc(OC)c2c(c1)O[C@H](c1cc(OC)c(OC)c(OC)c1)[C@@H](OC(=O)c1ccc(OC)c(OC)c1)C2`: the Ratio in series [1] came out at 12.1.

`COc1cc(OC)c2c(c1)O[C@H](c1cc(OC)c(OC)c(OC)c1)[C@H](OC(=O)c1ccc(OC)c(OC)c1)C2`: the Ratio in series [1] stood at 7.4. Further, the concentration for half-maximal inhibition (IC50) in series [3], in series [4] and in series [5] was more than 100 µM in each case.

On to `COc1ccc(CCC(=O)O[C@@H]2Cc3c(OC)cc(OC)cc3O[C@@H]2c2cc(OC)c(OC)c(OC)c2)cc1`, for which, in series [1], the Ratio worked out at 3.6.

Consider `COc1cc(OC)c2c(c1)O[C@H](c1cc(OC)c(OC)c(OC)c1)[C@H](OC(=O)c1ccc(F)c(N(C)C)c1)C2`, for which, in series [1], the Ratio came to 4. The 50% inhibitory concentration (IC50) in series [3], in series [4] and in series [5] was more than 100 µM in each case.

For `COc1cc(OC)c2c(=O)c(OCCOC(=O)/C=C/c3cc(OC)c(OC)c(OC)c3)c(-c3ccc(OC)c(OC)c3)oc2c1`, the Ratio in series [1] is 11.2.

Turning to `COc1cc(OC)c2c(c1)O[C@H](c1cc(OC)c(OC)c(OC)c1)[C@@H](OC(=O)c1ccc(F)c(NC(=O)c3cc(OC)c(OC)c(OC)c3)c1)C2=O`, the Ratio in series [1] turned out to be 4.

For the molecule `COc1cc(OC)c2c(c1)O[C@H](c1cc(OC)c(OC)c(OC)c1)[C@H](OC(=O)Cc1ccc(OC)c(OC)c1)C2`, the Ratio in series [1] is recorded as 4.5.

In the case of `COc1cc(OC)c2c(c1)O[C@H](c1cc(OC)c(OC)c(OC)c1)[C@@H](OC(=O)c1ccc(F)c(NC(=O)c3ccc(OC)c(OC)c3)c1)C2=O`, the Ratio in series [1] is on record as 15.4.

For the molecule `COc1cc(OC)c2c(c1)O[C@H](c1cc(OC)c(OC)c(OC)c1)[C@@H](OC(C)=O)C2=O`, in series [1], the Ratio turned out to be 1.4.

Regarding `COc1ccc(/C=C/C(=O)O[C@@H]2Cc3c(OC)cc(OC)cc3O[C@@H]2c2cc(OC)c(OC)c(OC)c2)cc1`, the Ratio in series [1] amounted to 6.6. Besides, the IC50 in series [3], in series [4] and in series [5] was more than 100 µM in each case.

Regarding `COc1cc(OC)c2c(c1)O[C@H](c1cc(OC)c(OC)c(OC)c1)[C@H](OC(=O)c1ccc(F)c(NC(=O)/C=C/c3cc(OC)c(OC)c(OC)c3)c1)C2`, the Ratio in series [1] came to 23.3. In addition, the half-maximal inhibitory concentration (IC50) in series [3], in series [4] and in series [5] was more than 100 µM throughout.

Consider `COc1cc(OC)c2c(c1)O[C@H](c1cc(OC)c(OC)c(OC)c1)[C@H](OC(=O)c1ccc(F)cc1)C2`, for which the Ratio in series [1] was found to be 2.7. Moreover, the IC50 in series [3], in series [4] and in series [5] was more than 100 µM throughout.

`CCOc1cc(C(=O)O[C@@H]2Cc3c(OC)cc(OC)cc3O[C@@H]2c2cc(OC)c(OC)c(OC)c2)cc(OCC)c1OCC`: the Ratio in series [1] is 1.3. Moreover, the IC50 in series [3], in series [4] and in series [5] was more than 100 µM each time.

On to `COc1cc(OC)c2c(c1)O[C@H](c1cc(OC)c(OC)c(OC)c1)[C@H](O)C2`, for which the Ratio in series [1] worked out at 0.9. For the same molecule, the 50% inhibitory concentration (IC50) is more than 100 µM in series [3], 0.1552 µM in series [2], more than 100 µM in series [4] and more than 75 µM in series [5].

Consider `COc1cccc(C(=O)O[C@@H]2Cc3c(OC)cc(OC)cc3O[C@@H]2c2cc(OC)c(OC)c(OC)c2)c1`, for which the Ratio in series [1] is on record as 3.2. For the same molecule, the concentration for half-maximal inhibition (IC50) in series [3], in series [4] and in series [5] was more than 100 µM in each case.

Consider `COc1cc(OC)c2c(c1)O[C@H](c1cc(OC)c(OC)c(OC)c1)[C@H](OC(=O)CCc1ccc(OC)c(OC)c1)C2`, for which, in series [1], the Ratio came to 7.6.

For the molecule `CC(=O)O[C@H]1C(=O)[C@@]2(C)[C@H]([C@H](OC(=O)c3ccccc3)[C@]3(O)C[C@H](OC(=O)[C@H](O)[C@@H](NC(=O)c4ccccc4)c4ccccc4)C(C)=C1C3(C)C)[C@]1(OC(C)=O)CO[C@@H]1C[C@@H]2O` [PACLITAXEL], the half-maximal inhibitory concentration (IC50) in series [3] came out at 0.0016 µM; in series [5], 0.145 µM.

`COc1cc(OC)c2c(c1)O[C@H](c1cc(OC)c(OC)c(OC)c1)[C@H](OC(=O)c1ccc(F)c(NC(C)=O)c1)C2`: in series [1], the Ratio is 9.8. For the same molecule, the IC50 in series [3], in series [4] and in series [5] was more than 100 µM in each case.

`CC(=O)Oc1cc(OC(C)=O)c2c(c1)O[C@H](c1cc(OC(C)=O)c(OC(C)=O)c(OC(C)=O)c1)[C@H](OC(=O)c1cc(OC(C)=O)c(OC(C)=O)c(OC(C)=O)c1)C2`: the Ratio in series [1] amounted to 0.8. The figures for the IC50 in series [3], in series [4] and in series [5] were 71.5 µM, 41.4 µM and 31.7 µM, respectively.

On to `C=CCOc1cc(C(=O)O[C@@H]2Cc3c(OC)cc(OC)cc3O[C@@H]2c2cc(OC)c(OC)c(OC)c2)cc(OCC=C)c1OCC=C`, for which the Ratio in series [1] came out at 12.1. Also, the IC50 in series [3], in series [4] and in series [5] was more than 100 µM in each case.

Take `COc1cc(OC)c2c(c1)O[C@H](c1cc(OC)c(OC)c(OC)c1)[C@H](OC(=O)c1cccc(F)c1)C2`: the Ratio in series [1] is on record as 1.5. In addition, the half-maximal inhibitory concentration (IC50) in series [3], in series [4] and in series [5] was more than 100 µM each time.

For `COc1ccc(CC(=O)O[C@@H]2Cc3c(OC)cc(OC)cc3O[C@@H]2c2cc(OC)c(OC)c(OC)c2)cc1`, the Ratio in series [1] worked out at 4.2.

Regarding `COc1cc(OC)c2c(c1)O[C@H](c1cc(OC)c(OC)c(OC)c1)[C@@H](OC(=O)/C=C/c1cc(OC)c(OC)c(OC)c1)C2`, the half-maximal inhibitory concentration (IC50) in series [3], in series [4] and in series [5] was more than 100 µM each time.

Take `C=CCOc1cc(C(=O)O[C@H]2C(=O)c3c(OC)cc(OC)cc3O[C@@H]2c2cc(OC)c(OC)c(OC)c2)cc(OCC=C)c1OCC=C`: the Ratio in series [1] is reported as 4.6.

On to `COc1cc(OC)c2c(c1)O[C@H](c1cc(OC)c(OC)c(OC)c1)[C@@H](OC(=O)c1ccc(F)c(NC(=O)/C=C/c3ccc(OC)c(OC)c3)c1)C2=O`, for which the Ratio in series [1] is reported as 10. Besides, the concentration for half-maximal inhibition (IC50) in series [2] was 0.0144 µM.

As for `COc1cc(O)c2c(=O)c(OC(=O)c3cc(OC)c(OC)c(OC)c3)c(-c3ccc(OC)c(OC)c3)oc2c1`, in series [1], the Ratio turned out to be 2.1.

On to `COc1cc(OC)c2c(c1)O[C@H](c1cc(OC)c(OC)c(OC)c1)[C@H](OC(=O)CCc1cc(OC)c(OC)c(OC)c1)C2`, for which the Ratio in series [1] came to 8.

In the case of `COc1ccc(C(=O)O[C@@H]2Cc3c(OC)cc(OC)cc3O[C@@H]2c2cc(OC)c(OC)c(OC)c2)cc1`, the Ratio in series [1] worked out at 1. The IC50 in series [3] was more than 100 µM; in series [4], more than 100 µM; in series [5], more than 84 µM.

Take `COc1cc(OC)c2c(c1)O[C@H](c1cc(OC)c(OC)c(OC)c1)[C@H](OC(=O)Cc1cc(OC)c(OC)c(OC)c1)C2`: the Ratio in series [1] is recorded as 5.8. In series [2], the IC50 amounted to 0.025 µM.

As for `COc1ccc(/C=C/C(=O)O[C@H]2Cc3c(OC)cc(OC)cc3O[C@@H]2c2cc(OC)c(OC)c(OC)c2)cc1`, in series [1], the Ratio is reported as 7.8.

For `COc1ccc(C(=O)OCCOc2c(-c3ccc(OC)c(OC)c3)oc3cc(OC)cc(OC)c3c2=O)cc1`, the Ratio in series [1] came to 6.

Regarding `COc1cc(OC)c2c(c1)O[C@H](c1cc(OC)c(OC)c(OC)c1)[C@@H](O)C2`, in series [1], the Ratio is recorded as 1.1.

On to `COc1ccc(/C=C/C(=O)O[C@H]2C(=O)c3c(OC)cc(OC)cc3O[C@@H]2c2cc(OC)c(OC)c(OC)c2)cc1`, for which, in series [1], the Ratio worked out at 3.6.
